Where two headings read alike, the source gives them in different places.
Key:
[1] = target: HA-GST-Rheb (GTP-γ-S loaded) activating mTORC1 (Homo sapiens (Human), UniProt Q15382); experiment: Rheb-dependent in vitro kinase assay (Rheb-IVK; LanthaScreen or Western readout); type: biochemical
[2] = target: Rheb (Homo sapiens (Human), UniProt Q15382); experiment: Affinity Selection Mass Spectrometry (ASMS); type: binding; details: affinity (R3/R0) in Affinity Selection Mass Spectrometry assay
How it was run: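 Affinity selection used 2 μM compound with 60 μM Rheb and 180 μM GDP for 30 min at room temperature. After 10 kDa ultrafiltration washes, protein was denatured in MeCN and bound compound quantified by C18 UPLC with Q-TOF MS, against a no-protein control.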

[3] = Rheb-dependent in vitro kinase assay, read-out: IVK IC50

Chain of Rheb (Q15382 1-169 limits assumed): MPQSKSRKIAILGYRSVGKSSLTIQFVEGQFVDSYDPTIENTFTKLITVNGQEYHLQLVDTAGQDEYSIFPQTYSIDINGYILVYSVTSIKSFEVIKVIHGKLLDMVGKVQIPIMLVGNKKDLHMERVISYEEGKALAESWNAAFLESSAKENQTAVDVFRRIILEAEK
Chain of HA-GST-Rheb (GTP-γ-S loaded) activating mTORC1 (Q15382 1-181): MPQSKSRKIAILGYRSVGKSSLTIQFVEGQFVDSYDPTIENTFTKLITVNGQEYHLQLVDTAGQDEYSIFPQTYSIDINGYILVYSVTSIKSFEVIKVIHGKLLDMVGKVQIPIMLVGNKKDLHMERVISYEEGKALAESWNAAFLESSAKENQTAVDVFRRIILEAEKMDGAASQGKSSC

| Compound | IC50 [1, 3] | IC50 ([1]; LanthaScreen variation, Terbium labeled T46p4E-BP1 specific antibody, read-out: IC50 in the Rheb-IVK) | inhibition of mTORC1 activity in the Rheb-IVK ([1]; Western blot variation, anti 4E-BP1 and anti T37/46p4E-BP1) | ASMS (R3/R0) [2] |
| --- | --- | --- | --- | --- |
| OCc1cc2ccc(Sc3ccc(Cl)cc3)cc2n1Cc1nc[nH]n1 [I-185] | > 100 µM |  |  | C (an affinity (R3/R0)<20%) |
| OCc1cc2c(Sc3ccc(Cl)cc3)cc(Cl)cc2[nH]1 [I-187, (6-chloro-4-(4-chlorophenylthio)-1H-indol-2-yl)methanol] | < 10 µM |  |  | B (an affinity (R3/R0) between 100% and 20%) |
| O=C(O)c1cc2c(Sc3ccc(Cl)cc3)cc(Cl)cc2[nH]1 [I-190, 6-chloro-4-(4-chlorophenylthio)-1H-indole-2-carboxylic acid] | 10 to 100 µM |  |  | B (an affinity (R3/R0) between 100% and 20%) |
| OCc1cc(Sc2ccc(Cl)cc2)c2cc[nH]c2c1 [I-198, (4-(4-chlorophenylthio)-1H-indol-6-yl)methanol] | 10 to 100 µM |  |  | B (an affinity (R3/R0) between 100% and 20%) |
| Clc1cc(Oc2ccccc2Cl)c2cc[nH]c2c1 [I-202, 6-chloro-4-(2-chlorophenoxy)-1H-indole] | 10 to 100 µM |  |  | B (an affinity (R3/R0) between 100% and 20%) |
| Clc1ccc(Oc2cc(Cl)cc3[nH]ccc23)cc1 [I-204, 6-chloro-4-(4-chlorophenoxy)-1H-indole] | 10 to 100 µM |  |  | C (an affinity (R3/R0)<20%) |
| Cn1c(C(=O)O)cc2c(Sc3ccc(Cl)cc3)cc(Cl)cc21 [I-207, 6-chloro-4-(4-chlorophenylthio)-1-methyl-1H-indole-2-carboxylic acid] | 10 to 100 µM |  |  | B (an affinity (R3/R0) between 100% and 20%) |
| Clc1cccc(Oc2cc(Cl)cc3[nH]ccc23)c1 [I-208, 6-chloro-4-(3-chlorophenoxy)-1H-indole] | 10 to 100 µM |  |  | B (an affinity (R3/R0) between 100% and 20%) |
| Clc1ccc(Cl)c(Sc2cccc3[nH]ccc23)c1 [I-209, 4-(2,5-dichlorophenylthio)-1H-indole] | 10 to 100 µM |  |  | B (an affinity (R3/R0) between 100% and 20%) |
| Clc1ccc(Sc2cccc3[nH]ccc23)c(Cl)c1 [I-212] | > 3 µM |  |  | B (an affinity (R3/R0) between 100% and 20%) |
| OCc1cc2c(Oc3cccc(Cl)c3)cc(Cl)cc2[nH]1 [I-215, (6-chloro-4-(3-chlorophenoxy)-1H-indol-2-yl)methanol] | 10 to 100 µM |  |  | B (an affinity (R3/R0) between 100% and 20%) |
| OCc1cc2c(Oc3ccccc3Cl)cc(Cl)cc2[nH]1 [I-216, (6-chloro-4-(2-chlorophenoxy)-1H-indol-2-yl)methanol] | 10 to 100 µM |  |  | B (an affinity (R3/R0) between 100% and 20%) |
| CC(O)c1cc2c(Br)cc(Oc3ccccc3)cc2[nH]1 (stereo not drawn) [I-218, 1-(4-bromo-6-phenoxy-1H-indol-2-yl)ethanol] | 10 to 100 µM |  |  | B (an affinity (R3/R0) between 100% and 20%) |
| Brc1cc(Oc2ccccc2)cc2c1ccn2Cc1ccc(-c2nn[nH]n2)cc1 [I-220, 1-(4-(2H-tetrazol-5-yl)benzyl)-4-bromo-6-phenoxy-1H-indole] | < 10 µM |  |  | A (an affinity (R3/R0)>100%) |
| Cn1ccc2c(Sc3ccc(Cl)cc3)cccc21 [I-222] | > 100 µM |  |  | B (an affinity (R3/R0) between 100% and 20%) |
| OCc1cc2c(Cl)cc(Oc3ccccc3)cc2n1Cc1nc[nH]n1 [I-226] | > 100 µM |  |  | C (an affinity (R3/R0)<20%) |
| OCc1cc2c(Br)cc(OCCCc3ccccc3)cc2[nH]1 [I-235, (4-Bromo-6-(3-phenylpropoxy)-1H-indol-2-yl)methanol] | 10 to 100 µM |  |  | B (an affinity (R3/R0) between 100% and 20%) |
| OCc1cc2c(Br)cc(Sc3ccccc3)cc2[nH]1 [I-237, (4-bromo-6-(phenylthio)-1H-indol-2-yl)methanol] | 10 to 100 µM |  |  | B (an affinity (R3/R0) between 100% and 20%) |
| Brc1cc(Oc2ccccc2)cc2[nH]ccc12 [I-239, 4-bromo-6-phenoxy-1H-indole] | 10 to 100 µM |  |  | B (an affinity (R3/R0) between 100% and 20%) |
| Clc1cccc(Sc2cccc3[nH]ccc23)c1 [I-243, 4-(3-chlorophenylthio)-1H-indole] | 10 to 100 µM |  |  | B (an affinity (R3/R0) between 100% and 20%) |
| Clc1ccccc1Sc1cccc2[nH]ccc12 [I-244, 4-(2-chlorophenylthio)-1H-indole] | 10 to 100 µM |  |  | B (an affinity (R3/R0) between 100% and 20%) |
| Clc1ccc(Sc2cccc3[nH]ccc23)cc1 [I-246, 4-(4-chlorophenylthio)-1H-indole] | 10 to 100 µM |  |  | C (an affinity (R3/R0)<20%) |
| Clc1ccc(Cl)c(Oc2cccc3[nH]ccc23)c1 [I-251, 4-(2,5-Dichlorophenoxy)-1H-indole] | 10 to 100 µM |  |  | C (an affinity (R3/R0)<20%) |
| Clc1cccc(Oc2cccc3[nH]ccc23)c1Cl [I-254, 4-(2,3-Dichlorophenoxy)-1H-indole] | 10 to 100 µM |  |  | B (an affinity (R3/R0) between 100% and 20%) |
| Clc1ccc(Oc2cccc3[nH]ccc23)c(Cl)c1 [I-255, 4-(2,4-Dichlorophenoxy)-1H-indole] | 10 to 100 µM |  |  | B (an affinity (R3/R0) between 100% and 20%) |
| Cn1ccc2c(Oc3ccccc3F)cccc21 [I-267] | > 3 µM |  |  | C (an affinity (R3/R0)<20%) |
| Cn1c(CO)cc2c(Oc3cccc(Cl)c3)cccc21 [I-271] | > 3 µM |  |  | C (an affinity (R3/R0)<20%) |
| Fc1cccc(Oc2cccc3[nH]ccc23)c1 [I-282, 4-(3-fluorophenoxy)-1H-indole] | 100 to 300 µM |  |  | C (an affinity (R3/R0)<20%) |
| Clc1ccc(Oc2cccc3[nH]ccc23)cc1 [I-283, 4-(4-chlorophenoxy)-1H-indole] | 100 to 300 µM |  |  | C (an affinity (R3/R0)<20%) |
| Fc1ccccc1Oc1cccc2[nH]ccc12 [I-288, 4-(2-fluorophenoxy)-1H-indole] | 100 to 300 µM |  |  | C (an affinity (R3/R0)<20%) |

Now from value to molecule, other results behind:

| IC50 [1, 3] | IC50 ([1]; LanthaScreen variation, Terbium labeled T46p4E-BP1 specific antibody, read-out: IC50 in the Rheb-IVK) | inhibition of mTORC1 activity in the Rheb-IVK ([1]; Western blot variation, anti 4E-BP1 and anti T37/46p4E-BP1) | Compound | ASMS (R3/R0) [2] |
| --- | --- | --- | --- | --- |
| 10 to 100 µM |  |  | CC(O)c1cc2c(Oc3ccccc3)cc(Cl)cc2[nH]1 (stereo not drawn) [I-186, 1-(6-Chloro-4-phenoxy-1H-indol-2-yl)ethanol] | B (an affinity (R3/R0) between 100% and 20%) |
| 10 to 100 µM |  |  | OCc1cc2c(Cl)cc(Oc3ccccc3)cc2n1Cc1nn[nH]n1 [I-194, (1-((2H-tetrazol-5-yl)methyl)-4-chloro-6-phenoxy-1H-indol-2-yl)methanol] | C (an affinity (R3/R0)<20%) |
| 10 to 100 µM |  |  | OCc1cc2c(Br)cc(OCCc3ccccc3)cc2[nH]1 [I-236, (4-Bromo-6-phenethoxy-1H-indol-2-yl)methanol] | B (an affinity (R3/R0) between 100% and 20%) |
| 10 to 100 µM |  |  | OCc1cc2c(Br)cc(OCc3ccccc3)cc2[nH]1 [I-241, (6-(Benzyloxy)-4-bromo-1H-indol-2-yl)methanol] | B (an affinity (R3/R0) between 100% and 20%) |
| 10 to 100 µM |  |  | NC(=O)CCc1cc2c(Oc3ccccc3)c(Cl)ccc2[nH]1 [I-247, 3-(5-chloro-4-phenoxy-1H-indol-2-yl)propanamide] | C (an affinity (R3/R0)<20%) |
| 10 to 100 µM |  |  | OCCCc1cc2c(Oc3ccccc3)c(Cl)ccc2[nH]1 [I-248, 3-(5-chloro-4-phenoxy-1H-indol-2-yl)propan-1-ol] | C (an affinity (R3/R0)<20%) |
| 10 to 100 µM |  |  | OCc1cc2c(F)cc(Oc3ccccc3)cc2[nH]1 [I-249, (4-fluoro-6-phenoxy-1H-indol-2-yl)methanol] | C (an affinity (R3/R0)<20%) |
| 10 to 100 µM |  |  | OCc1cc2c(Oc3ccccc3)c(Cl)c(Cl)cc2[nH]1 [I-250, (5,6-Dichloro-4-phenoxy-1H-indol-2-yl)methanol] | B (an affinity (R3/R0) between 100% and 20%) |
| 10 to 100 µM |  |  | OCc1cc2c(Cl)cc(Oc3ccccc3)cc2[nH]1 [I-252, (4-chloro-6-phenoxy-1H-indol-2-yl)methanol] | B (an affinity (R3/R0) between 100% and 20%) |
| 10 to 100 µM |  |  | Clc1ccc2[nH]c(-c3cnco3)cc2c1Oc1ccccc1 [I-256, 5-(5-chloro-4-phenoxy-1H-indol-2-yl)oxazole] | B (an affinity (R3/R0) between 100% and 20%) |
| 10 to 100 µM |  |  | Clc1ccc2[nH]ccc2c1Oc1ccccc1 [I-257, 5-chloro-4-phenoxy-1H-indole] | C (an affinity (R3/R0)<20%) |
| 10 to 100 µM |  |  | OCCc1cc2c(Oc3ccccc3)c(Cl)ccc2[nH]1 [I-261, 2-(5-chloro-4-phenoxy-1H-indol-2-yl)ethanol] | C (an affinity (R3/R0)<20%) |
| 10 to 100 µM |  |  | OCc1cc2c(Oc3ccc(Cl)cc3)cccc2[nH]1 [I-263, (4-(4-chlorophenoxy)-1H-indol-2-yl)methanol] | C (an affinity (R3/R0)<20%) |
| 100 to 300 µM |  |  | OCc1cc2c(Oc3cccc(Cl)c3)cccc2[nH]1 [I-275, (4-(3-chlorophenoxy)-1H-indol-2-yl)methanol] | C (an affinity (R3/R0)<20%) |
| 10 to 100 µM |  |  | OCc1cc2c(Br)cc(Oc3ccccc3)cc2[nH]1 [I-290, (4-Bromo-6-phenoxy-1H-indol-2-yl)methanol] | B (an affinity (R3/R0) between 100% and 20%) |
| 10 to 100 µM |  |  | OCc1cc2c(Oc3ccccc3)cc(Cl)cc2[nH]1 [I-291, (6-Chloro-4-phenoxy-1H-indol-2-yl)methanol] | C (an affinity (R3/R0)<20%) |
| 100 to 300 µM | ~83.8 µM | capable of inhibiting mTORC1 activity | OCc1cc2c(Oc3ccccc3)c(Cl)ccc2[nH]1 [I-293, (5-chloro-4-phenoxy-1H-indol-2-yl)methanol] | C (an affinity (R3/R0)<20%) |

From patent US11339144B2 (Navitor Pharmaceuticals, Inc., priority 2017, dated 2022)
